Reference: patent US20220265694A1, “COMPOSITIONS AND METHODS FOR TREATING AN INFECTION” (CMPD LICENSING, LLC, priority 2016, published 2022)

Tests used:
Shigella flexneri = test: Expected efficacy of antibiotic agents; settings: expected efficacy against Shigella flexneri; Gram: neg
Serratia marcescens = test: Expected efficacy of antibiotic agents; settings: expected efficacy against Serratia marcescens; Gram: neg
[1] = tested on: Haemophilus parainfluenzae; test: Expected efficacy of antibiotic agents; settings: expected efficacy against Haemophilus parainfluenzae; Gram: neg
Providencia stuartii = test: Expected efficacy of antibiotic agents; settings: expected efficacy against Providencia stuartii; Gram: neg
Providencia rettgeri = test: Expected efficacy of antibiotic agents; settings: expected efficacy against Providencia rettgeri; Gram: neg
Bordetella pertussis = test: Expected efficacy of antibiotic agents; settings: expected efficacy against Bordetella pertussis; Gram: neg
Haemophilus influenzae = test: Expected efficacy of antibiotic agents; settings: expected efficacy against Haemophilus influenzae; Gram: neg
Shigella sonnei = test: Expected efficacy of antibiotic agents; settings: expected efficacy against Shigella sonnei; Gram: neg
Enterococcus faecalis = test: Expected efficacy of antibiotic agents; settings: expected efficacy against Enterococcus faecalis; Gram: pos
Peptostreptococcus = test: Expected efficacy of antibiotic agents; settings: expected efficacy against Peptostreptococcus; Gram: pos
Enterobacter sakazakii = test: Expected efficacy of antibiotic agents; settings: expected efficacy against Enterobacter sakazakii; Gram: neg
Acinetobacter lwoffii = test: Expected efficacy of antibiotic agents; settings: expected efficacy against Acinetobacter lwoffii; Gram: neg
[2] = tested on: Viridans group streptococci; test: Expected efficacy of antibiotic agents; settings: expected efficacy against Viridans group streptococci; Gram: pos
Acinetobacter baumannii = test: Expected efficacy of antibiotic agents; settings: expected efficacy against Acinetobacter baumannii; Gram: neg
Bartonella bacilliformis = test: Expected efficacy of antibiotic agents; settings: expected efficacy against Bartonella bacilliformis; Gram: neg
Pseudomonas fluorescens = test: Expected efficacy of antibiotic agents; settings: expected efficacy against Pseudomonas fluorescens; Gram: neg

SMILES	Efficacy (Shigella flexneri)	Efficacy (Serratia marcescens)	Efficacy [1]	Efficacy (Providencia stuartii)	Efficacy (Providencia rettgeri)	Efficacy (Bordetella pertussis)	Efficacy (Haemophilus influenzae)	Efficacy (Shigella sonnei)	Efficacy (Enterococcus faecalis)	Efficacy (Peptostreptococcus)	Efficacy (Enterobacter sakazakii)	Efficacy (Acinetobacter lwoffii)	Efficacy [2]	Efficacy (Acinetobacter baumannii)	Efficacy (Bartonella bacilliformis)	Efficacy (Brucella species)	Efficacy (Pseudomonas fluorescens)
CO/N=C(\C(=O)N[C@@H]1C(=O)N2C(C(=O)O)=C(CSc3nc(=O)c(=O)[nH]n3C)CS[C@H]12)c1csc(N)n1 [Ceftriaxone]	yes	yes	yes	yes	yes	no	yes	yes	no	yes	yes	no	yes	no			
CN[C@H](CC(C)C)C(=O)N[C@H]1C(=O)N[C@@H](CC(N)=O)C(=O)N[C@H]2C(=O)N[C@H]3C(=O)N[C@H](C(=O)N[C@H](C(=O)O)c4cc(O)cc(O)c4-c4cc3ccc4O)[C@H](O)c3ccc(c(Cl)c3)Oc3cc2cc(c3O[C@@H]2O[C@H](CO)[C@@H](O)[C@H](O)[C@H]2O[C@H]2C[C@](C)(N)[C@H](O)[C@H](C)O2)Oc2ccc(cc2Cl)[C@H]1O [Vancomycin]	no	no	no	no	no	no	no	no	yes	yes	no	no	yes	no	no	no	no
